Tests used:
[1] = Arterial blood gas analysis; format: in vivo, rabbit; settings: for pH: arterial blood
Protocol: (§1) Male New Zealand white rabbits weighing between 2.5 and 3.0 kg were anesthetized with intravenous sodium pentobarbital (30 mg/kg). Additional doses of pentobarbital were titrated as required to assure that pedal and palpebral reflexes were absent throughout the experiment. A tracheotomy was performed through a ventral midline incision, and the trachea was cannulated. The rabbits were ventilated with positive pressure using an air-oxygen mixture (FiO2=0.33). […] Body temperature was maintained with a heating blanket. Heparin-filled catheters were inserted into the right carotid artery and the left jugular vein for measurement of arterial blood pressure and fluid or drug administration, respectively. Maintenance fluids consisted of 0.9% saline (15 ml/kg/h) that were continued for the duration of the experiment.
(§2) Baseline measurements of systemic hemodynamics, arterial blood gas tensions, and blood concentrations of anesthetic agent were performed 30 min after instrumentation was completed. Rabbits received 0.9% saline, drug lipid vehicle (10 ml/h), or intravenous volatile anesthetic (10 ml/h) for 30 min. Infusions were discontinued 30 min prior to coronary occlusion (memory period). Blood concentrations of anesthetic agents were performed at baseline, at the end of anesthetic infusion, and at the end of the memory period just before coronary occlusion). HVA concentrations in blood were determined by gas chromatographic (GC) analysis. All rabbits underwent a 30 min LAD occlusion followed by 3 h reperfusion.
(§3) Statistical analysis of data within and between groups was performed with analysis of variance (ANOVA) for repeated measures followed by Student-Newman-Keuls test. Changes between groups were considered statistically significant when the p value was less than 0.05. All data are expressed as mean±SEM.

[2] = literature values determined in rabbits; cited from earlier work
[3] = Systemic hemodynamics during infarct experiment; format: in vivo, rabbit
Protocol: as §1
A left thoracotomy was performed at the fourth intercostal space, and the heart was suspended in a pericardial cradle. A prominent branch of the left anterior descending coronary artery (LAD) was selected, and a silk ligature was placed around this artery approximately halfway between the base and apex for the production of coronary artery occlusion and reperfusion in myocardial infarct size experiments. Each rabbit was anticoagulated with 500 U of heparin immediately before LAD occlusion. Coronary artery occlusion was verified by the presence of epicardial cyanosis and regional dyskinesia in the ischemic zone, and reperfusion was confirmed by observing an epicardial hyperemic response. Hemodynamics were continuously recorded on a polygraph throughout experimentation. After the surgical preparation, 30 min of stabilization were allowed.
as §2, §3

[4] = Literature MAC values in rabbits and 1 MAC-equivalent blood concentration; format: in vivo; settings: 37° C., rabbit; x=λn
Protocol: “Minimum alveolar concentration (MAC)”, as is known in the art, is the alveolar concentration of an anesthetic, administered by inhalation at a pressure of 1 atmosphere, that prevents movement in 50% of patients in response to a painful stimuli. The MAC is age-dependent; it may be affected by a patient's medical condition; and it may also be affected by other pharmaceutical agents that are administered to the patient. In the context of intravenous administration of HVAs, the term “MAC” or “MAC-equivalent” is intended to mean an intravenous dose which produces the same blood plasma concentration of an anesthetic agent as that attained by inhalational administration of a gaseous concentration of anesthetic which prevents such movement in 50% of patients.
Blood concentrations as measured by GC were converted to their MAC-equivalent values by calculations described below. Initially “n”, or the number of moles of HVA in 1 L of alveolar gas during exposure to 1.0 MAC of the HVA was calculated.
The number of moles of the HVA in 1 L at 37° C. at 1 MAC in rabbits was then used to determine the concentration of the HVA present in blood by using known blood/gas partition values (also known as λ). […] The value for “x” (or the equivalent blood concentration of the HVA at 1 MAC at 37° C. in rabbit) is then determined by the equation: x=λn

[5] = End-tidal gas analysis; format: in vivo, rabbit; settings: for EtHalogenated: end-tidal
Protocol: as §2, §3

[6] = i.v. emulsion 10 ml/h for 30 min, Baseline

## FC(F)OC(F)C(F)(F)F (stereo not drawn) [DES, desflurane]
[1]; Baseline
  PaCO2: 29 ± 2 mmHg
  PaO2: 158 ± 23 mmHg
  pH: 7.45 ± 0.02
[1]; Infusion
  PaCO2: 32 ± 3 mmHg
  PaO2: 157 ± 17 mmHg
  pH: 7.40 ± 0.02
[1]; Ischemia 30 min
  PaCO2: 31 ± 3 mmHg
  PaO2: 136 ± 24 mmHg
  pH: 7.34 ± 0.01
[1]; Memory
  PaCO2: 34 ± 3 mmHg
  PaO2: 143 ± 17 mmHg
  pH: 7.36 ± 0.02
[1]; Reperfusion 1 h
  PaCO2: 30 ± 4 mmHg
  PaO2: 141 ± 19 mmHg
  pH: 7.37 ± 0.02
[1]; Reperfusion 2 h
  PaCO2: 26 ± 3 mmHg
  PaO2: 155 ± 18 mmHg
  pH: 7.40 ± 0.01
[1]; Reperfusion 3 h
  PaCO2: 30 ± 1 mmHg
  PaO2: 165 ± 12 mmHg
  pH: 7.41 ± 0.01
[2]
  Average MAC: 8.9 % v/v
[3]; Baseline
  MAP: 71 ± 8 mmHg
[3]; Infusion
  HR: 253 ± 9 bpm
  MAP: 67 ± 9 mmHg
  RPP: 20.4 ± 2.8 bpm × mmHg × 10^3
[3]; Ischemia 30 min
  HR: 228 ± 7 bpm
  MAP: 53 ± 8 mmHg
  RPP: 14.5 ± 2 bpm × mmHg × 10^3
[3]; Memory
  HR: 231 ± 9 bpm
  MAP: 58 ± 10 mmHg
  RPP: 16.3 ± 3 bpm × mmHg × 10^3
[3]; Memory, listed as desflurane
  MAP: decrease in mean arterial pressure
[3]; Reperfusion 1 h
  HR: 201 ± 14 bpm
  MAP: 54 ± 7 mmHg
  RPP: 12.4 ± 0.4 bpm × mmHg × 10^3
[3]; Reperfusion 1 h, listed as desflurane
  RPP: decreased
[3]; Reperfusion 2 h
  HR: 216 ± 6 bpm
  MAP: 58 ± 8 mmHg
  RPP: 15 ± 2.1 bpm × mmHg × 10^3
[3]; Reperfusion 3 h
  HR: 219 ± 7 bpm
  MAP: 54 ± 5 mmHg
  RPP: 14.2 ± 1.4 bpm × mmHg × 10^3
[3]; [6]
  HR: 261 ± 11 bpm
[4]
  1 MAC-Equivalent Blood Concentration at 1 MAC ("x"): 1.38 mM
[5]; Baseline
  EtCO2: 31 ± 2 mmHg
  EtHalogenated: 0%
[5]; Infusion
  EtCO2: 30 ± 2 mmHg
  EtHalogenated: 0.37 ± 0.03 %
[5]; Ischemia 30 min
  EtCO2: 26 ± 3 mmHg
  EtHalogenated: 0.01 ± 0.00%
[5]; Memory
  EtCO2: 28 ± 3 mmHg
  EtHalogenated: 0.03 ± 0.01%
[5]; Reperfusion 1 h
  EtCO2: 29 ± 4 mmHg
  EtHalogenated: 0.00 ± 0.00%
[5]; Reperfusion 2 h
  EtCO2: 28 ± 3 mmHg
  EtHalogenated: 0.00 ± 0.00%
[5]; Reperfusion 3 h
  EtCO2: 29 ± 3 mmHg
  EtHalogenated: 0.00 ± 0.00%

## FC(F)OC(F)(F)C(F)Cl (stereo not drawn) [ENF, enflurane]
[1]; Baseline
  PaCO2: 28 ± 2 mmHg
  PaO2: 151 ± 16 mmHg
  pH: 7.47 ± 0.02
[1]; Infusion
  PaCO2: 31 ± 2 mmHg
  PaO2: 130 ± 14 mmHg
  pH: 7.41 ± 0.02
[1]; Ischemia 30 min
  PaCO2: 32 ± 2 mmHg
  PaO2: 157 ± 22 mmHg
  pH: 7.37 ± 0.02
[1]; Memory
  PaCO2: 30 ± 2 mmHg
  PaO2: 149 ± 16 mmHg
  pH: 7.40 ± 0.02
[1]; Reperfusion 1 h
  PaCO2: 28 ± 2 mmHg
  PaO2: 143 ± 11 mmHg
  pH: 7.38 ± 0.02
[1]; Reperfusion 2 h
  PaCO2: 27 ± 2 mmHg
  PaO2: 135 ± 10 mmHg
  pH: 7.40 ± 0.03
[1]; Reperfusion 3 h
  PaCO2: 32 ± 3 mmHg
  PaO2: 131 ± 12 mmHg
  pH: 7.42 ± 0.02
[2]
  Average MAC: 2.86 % v/v
[3]; Baseline
  MAP: 78 ± 4 mmHg
  RPP: 22 ± 1.9 bpm × mmHg × 10^3
[3]; Infusion
  HR: 240 ± 11 bpm
  MAP: 68 ± 3 mmHg
  RPP: 18.9 ± 1.5 bpm × mmHg × 10^3
[3]; Ischemia 30 min
  HR: 213 ± 9 bpm
  MAP: 59 ± 6 mmHg
  RPP: 14.5 ± 1.7 bpm × mmHg × 10^3
[3]; Memory
  HR: 231 ± 11 bpm
  MAP: 70 ± 3 mmHg
  RPP: 18.9 ± 1.4 bpm × mmHg × 10^3
[3]; Reperfusion 1 h
  HR: 216 ± 7 bpm
  MAP: 65 ± 6 mmHg
  RPP: 15.8 ± 1.5 bpm × mmHg × 10^3
[3]; Reperfusion 2 h
  HR: 214 ± 10 bpm
  MAP: 68 ± 7 mmHg
  RPP: 16.5 ± 1.6 bpm × mmHg × 10^3
[3]; Reperfusion 3 h
  HR: 210 ± 7 bpm
  MAP: 75 ± 5 mmHg
  RPP: 17.6 ± 1.3 bpm × mmHg × 10^3
[3]; [6]
  HR: 248 ± 10 bpm
[4]
  1 MAC-Equivalent Blood Concentration at 1 MAC ("x"): 1.995 mM
[5]; Baseline
  EtCO2: 36 ± 2 mmHg
  EtHalogenated: 0%
[5]; Infusion
  EtCO2: 37 ± 2 mmHg
  EtHalogenated: 0.27 ± 0.02%
[5]; Ischemia 30 min
  EtCO2: 33 ± 3 mmHg
  EtHalogenated: 0.00 ± 0.00%
[5]; Memory
  EtCO2: 34 ± 2 mmHg
  EtHalogenated: 0.02 ± 0.01%
[5]; Reperfusion 1 h
  EtCO2: 33 ± 3 mmHg
  EtHalogenated: 0.00 ± 0.00%
[5]; Reperfusion 2 h
  EtCO2: 33 ± 3 mmHg
  EtHalogenated: 0.00 ± 0.00%
[5]; Reperfusion 3 h
  EtCO2: 35 ± 3 mmHg
  EtHalogenated: 0.00 ± 0.00%

Reference: patent US7999011B2, “Method for cardioprotection and neuroprotection by intravenous administration of halogenated volatile anesthetics” (Baxter International Inc., priority 2002, dated 2011)
